Assay [1] deals with MCF-7/Adr drug-resistant human mammary carcinoma cells. The experiment in a line: Drug resistance, viable cell number (Coulter Counter). Format: cell-based. As to the method: (§1) FIG. 15A is a line graph showing that MCF-7/Adr drug-resistant human mammary carcinoma cells grown in culture with hyaluronan oligomers are sensitized to doxorubicin. MCF-7/Adr cells were obtained from MCF-7 cells by being selected for drug resistance by exposure to doxorubicin. Cells were grown for 24 h in 24-well plates in RPMI 1640 medium containing Glutamex 1 plus 10% fetal bovine serum at 37° in 5% CO2. Various concentrations of doxorubicin (doxo) were then added and the cells incubated for another 72 h, followed by a further 24 h in the presence or absence of 100 μg/ml hyaluronan oligomers (o-HA). The oligomers were a mixed population of 3-8 repeating disaccharides in length. The cells were then harvested and the number of viable cells was determined in a Coulter Counter.
FIG. 18 is a set of line graphs showing a resulting cell number, on the ordinate, following drug treatment with doxorubicin, concentration (log) in nM on the abscissa, showing restoration of drug sensitivity (inhibition of drug resistance) by HA oligomers, soluble hyaluronan-binding decoys, and CD44 siRNA, using derivatives of MCF-7 cells as in FIG. 17 above.
Therefore, the effect of co-treatment with hyaluronan oligomers on drug resistance was examined in an established system, i.e. MCF-7/Adr human mammary carcinoma cells that have been selected for resistance to doxorubicin (Fairchild, C. R., et al., Cancer Res 47, 5141-8, 1987). First, the effect of hyaluronan oligomers on resistance to doxorubicin in the MCF-7/Adr cells versus the relatively drug-sensitive, parental MCF-7 cell line was compared.

For assay [2], the system named is MCF-7 human mammary carcinoma cells. Described as above. Format: cell-based. The method, then:
as §1

Assay [3] has as its system MCF-7 cells infected with Has2, emmprin or β-galactosidase adenovirus. The experiment in a line: Doxorubicin resistance of recombinant adenovirus-infected MCF-7 cells. Type of assay: cell-based, human. Conditions: for IC50: Homo sapiens, MCF7, 48 h, 48 h. As to the method: Untreated MCF-7 cells or cells infected overnight with a recombinant Has2 adenovirus or a control β-galactosidase adenovirus (β-gal) were washed, then treated in culture for 48 h with 1-1000 nM doxorubicin, followed by analysis of cell number.
Cells were treated in culture for 48 h with 10-1000 nM doxorubicin in the presence or absence of 100 μg/ml o-HA and analyzed as in FIG. 16A.
FIG. 16C is a line graph showing doxorubicin response of untreated MCF-7 cells or cells infected overnight with a recombinant emmprin adenovirus or a control β-galactosidase adenovirus (β-gal) that were treated as described in FIG. 16B.
Emmprin adenovirus-infected MCF-7 cells or control β-galactosidase adenovirus (β-gal)-infected cells were treated in the presence or absence of 100 μg/ml hyaluronan oligomers (o-HA) as described in FIG. 16B. The results in FIGS. 16A-D are expressed as the means (±S.D) of three independent experiments performed in triplicate.

The test system of assay [4] is MDA-MB231 human mammary carcinoma cells. Description: Methotrexate resistance, cell number in monolayer culture. Type of assay: cell-based. The method, then: MDA-MB231 human mammary carcinoma cells were treated with increasing concentrations of methotrexate (MTX) in the presence or absence of 100 μg/ml HA oligomers. Cells were grown in monolayer culture in 10% fetal bovine serum and cell number measured in a coulter counter. The MTT assay for viable cells (Denizot, F., et al. J Immunol Methods, 89: 271-277, 1986) gave similar results.
Effect of addition of hyaluronan oligomers on resistance of MDA-MB231 human breast cancer cells to treatment with methotrexate was assessed.

The mark [5] stands for this setting: MCF-7/Adr + o-HA (100 μg/ml hyaluronan oligomers).
Where [6] appears, read: MCF-7 + o-HA (100 μg/ml hyaluronan oligomers).
The mark [7] stands for this setting: Homo sapiens, NCI/ADR-RES, MCF-7/Adr cells, drug alone.
Where [8] appears, read: Homo sapiens, MCF7, MCF-7 cells, drug alone.

Each structure is given as a SMILES string. Where two headings read alike, the source gives them in different places.

We go through five compounds from patent US8648047B2, “Methods and compositions for inhibition of multi-drug resistance by hyaluronan oligomers” (Tufts University, priority 2002, dated 2014).

Broadly, the IC50 is the point on the concentration scale where inhibition reaches its midpoint.

For the compound `O=NN(CCCl)C(=O)NCCCl` [BCNU, 1,3 bis(2-chloroethyl)-1-nitrosurea], the IC50 in assay [1] (setting [5]) is 180 nM; in assay [1] (MCF-7/Adr cells, drug alone), 14000 nM; in assay [2] (setting [6]) it was 1200 nM; in assay [2] (MCF-7 cells, drug alone), 500 nM.
For the compound `CC[C@]1(O)C[C@H]2CN(CCc3c([nH]c4ccccc34)[C@@](C(=O)OC)(c3cc4c(cc3OC)N(C=O)[C@H]3[C@@](O)(C(=O)OC)[C@H](OC(C)=O)[C@]5(CC)C=CCN6CC[C@]43[C@@H]65)C2)C1` [Vincristine], the concentration for half-maximal inhibition (IC50) turned out to be 200 nM in assay [1] (setting [7]), 20 nM in assay [1] (setting [5]) and 30 nM in assay [2] (setting [8]).
For `COc1cccc2c1C(=O)c1c(O)c3c(c(O)c1C2=O)C[C@@](O)(C(=O)CO)C[C@@H]3O[C@H]1C[C@H](N)[C@H](O)[C@H](C)O1` [Doxorubicin], the “increase in resistance to doxorubicin induced by increased hyaluronan production” value in assay [3] (HAS2 adenovirus-infected MCF-7 versus controls) is on record as 10-12 fold. Moreover, the IC50 in assay [3] (Has2 adenovirus-infected MCF-7 cells) is 210 nM; in assay [3] (uninfected MCF-7 cells), 18 nM; in assay [3] (β-galactosidase adenovirus-infected MCF-7 cells), 20 nM; in assay [1] (setting [7]) it was 2200 nM; in assay [1] (setting [5]), 40 nM; in assay [2] (setting [8]), 30 nM. Besides, in assay [2] (setting [6]), the IC50 was found to be 40 nM.
In the case of `CN(Cc1cnc2nc(N)nc(N)c2n1)c1ccc(C(=O)N[C@@H](CCC(=O)O)C(=O)O)cc1` [Methotrexate], the half-inhibitory concentration (IC50) in assay [4] (MDA-MB-231, MB231 cells, with 100 μg/ml hyaluronan oligomer (FIG. 12), read-out: IC50) is about 10 nM; in assay [4] (MDA-MB-231, MB231 cells, without hyaluronan oligomer (FIG. 12), read-out: IC50), about 1000 nM; in assay [4] (MDA-MB-231, MDA-MB231 + o-HA (100 μg/ml hyaluronan oligomers), read-out: IC50 values), 6 nM; in assay [4] (MDA-MB-231, MDA-MB231 cells, drug alone, read-out: IC50 values), 800 nM; in assay [2] (setting [8]), 20 nM.
With `CC(=O)O[C@H]1C(=O)[C@@]2(C)[C@H]([C@H](OC(=O)c3ccccc3)[C@]3(O)C[C@H](OC(=O)[C@H](O)[C@@H](NC(=O)c4ccccc4)c4ccccc4)C(C)=C1C3(C)C)[C@]1(OC(C)=O)CO[C@@H]1C[C@@H]2O` [Taxol], the 50% inhibitory concentration (IC50) was 700 nM in assay [1] (setting [7]), 60 nM in assay [1] (setting [5]) and 350 nM in assay [2] (setting [8]).
